Laboratory results taken from article PMC11052077, “Discovery of Dolutegravir Derivative against Liver Cancer via Inducing Autophagy and DNA Damage” (Molecules, 2024).

How the values were obtained:
in vitro = format: cell-based, human; conditions: human
Description: This study aimed to assess the anti-proliferative activity of dolutegravir-1,2,3-triazole derivatives on hepatocellular carcinoma cell lines, Huh7 and hepG2. A comprehensive CCK8 assay was employed to evaluate the impact of these compounds on cell viability, with cells treated at a concentration of 20 μM for 48 h. HRM cells, a normal cell line, were included as a control for comparative analysis. […]
(§1) CCK8 assay was used to measure cell viability. Cells with a density of 1 × 10^4 cells/well were seeded on 96-well plates. After adhesion, cells were treated with different diluted compounds or vehicle control DMSO and continued to be cultured for 48 h or 72 h, respectively. Then, CCK8 reagent was added for one hour incubation at 37 °C with 5% CO2. Absorbance was measured using a Microplate spectrophotometer (Thermo, Waltham, MA, USA) at 450 nm. The ratio of cell viability of control was taken as 100%. […] Then, IC50 of compounds were investigated using the prism statistical software 7.0.

hepG2 cells = assay: CCK8 cell viability assay, hepG2; format: cell-based, human; conditions: Homo sapiens
Description: (§2) This study aimed to assess the anti-proliferative activity of dolutegravir-1,2,3-triazole derivatives on hepatocellular carcinoma cell lines, Huh7 and hepG2. A comprehensive CCK8 assay was employed to evaluate the impact of these compounds on cell viability, with cells treated at a concentration of 20 μM for 48 h. HRM cells, a normal cell line, were included as a control for comparative analysis.
(§3) Human hepatocellular carcinoma cell lines Huh7 and hepG2 were obtained from ATCC (Manassas, VA, USA). Cells were cultured in DMEM or RPMI 1640 medium containing 10% FBS and 1% penicillin/streptomycin at 37 °C with a 5% CO2-humidified atmosphere.
as §1

Huh7 cells = assay: CCK8 cell viability assay, Huh7; format: cell-based, human; conditions: Homo sapiens, Huh-7, 48 h
Description: as §2, §3, §1

[1] = dose 27 times greater than the clinical dose, preclinical study; cited from earlier work

Work on `C[C@@H]1CCO[C@H]2Cn3cc(C(=O)NCc4ccc(F)cc4F)c(=O)c(O)c3C(=O)N12` [DTG, Dolutegravir] yielded a viability at 48 h, 20 µM (in vitro) of 99.6%, an IC50 (hepG2 cells; HepG2, 48 h, hepG2, CCK8, read-out: half maximal inhibitory concentration (IC50), hepG2) of over 50 µM and a viability at 20 µM (hepG2 cells; 20 μM, 48 h, hepG2, CCK8, control taken as 100%) of 82.6%. For the same compound, the viability at 20 µM (Huh7 cells; 20 μM, Huh7, CCK8, control taken as 100%) was 96.9%, the IC50 (Huh7 cells; Huh7, CCK8, read-out: half maximal inhibitory concentration (IC50), Huh7) was over 50 µM and the “fertility and teratogenic toxicity” value [1] was “no obvious fertility toxicity or teratogenic toxicity”.
